In the supplement of paper PMC11451515:

Test system: P12-Ichikawa
Test: cell viability relative to DMSO control; higher = less cytotoxic
Conditions: 48 h
Method in brief: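 NOMO1, SEM and P12-Ichikawa leukemia cells spent at least four passages adapting to each medium before use. They were seeded at 500 cells/well (NOMO1, SEM) or 1000 cells/well (P12-Ichikawa) in 5 μl in 1536-well plates and pin-dosed with library compounds in DMSO at 11 threefold steps from 47 μM down to 0.79 nM. After 48 h at 37°C, CellTiter-Glo One luminescence was read. Viability is reported as a percentage of the DMSO wells on each plate, with cell-free wells as background.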

[1] = HPLM + 10% dialyzed FBS, 0.000781 µM
[2] = HPLM + 10% dialyzed FBS, 0.00234 µM
[3] = HPLM + 10% dialyzed FBS, 0.00702 µM
[4] = HPLM + 10% dialyzed FBS, 0.0211 µM
[5] = HPLM + 10% dialyzed FBS, 0.0632 µM
[6] = HPLM + 10% dialyzed FBS, 0.19 µM
[7] = HPLM + 10% dialyzed FBS, 0.569 µM
[8] = HPLM + 10% dialyzed FBS, 1.71 µM
[9] = HPLM + 10% dialyzed FBS, 5.12 µM
[10] = HPLM + 10% dialyzed FBS, 15.4 µM
[11] = HPLM + 10% dialyzed FBS, 46.1 µM
[12] = RPMI 5 mM glucose + 10% FBS, 0.000781 µM
[13] = RPMI 5 mM glucose + 10% FBS, 0.00234 µM
[14] = RPMI 5 mM glucose + 10% FBS, 0.00702 µM
[15] = RPMI 5 mM glucose + 10% FBS, 0.0211 µM
[16] = RPMI 5 mM glucose + 10% FBS, 0.0632 µM
[17] = RPMI 5 mM glucose + 10% FBS, 0.19 µM
[18] = RPMI 5 mM glucose + 10% FBS, 0.569 µM
[19] = RPMI 5 mM glucose + 10% FBS, 1.71 µM
[20] = RPMI 5 mM glucose + 10% FBS, 5.12 µM
[21] = RPMI 5 mM glucose + 10% FBS, 15.4 µM
[22] = RPMI 5 mM glucose + 10% FBS, 46.1 µM
[23] = RPMI 5 mM glucose + 10% dialyzed FBS, 0.000781 µM
[24] = RPMI 5 mM glucose + 10% dialyzed FBS, 0.00234 µM
[25] = RPMI 5 mM glucose + 10% dialyzed FBS, 0.00702 µM
[26] = RPMI 5 mM glucose + 10% dialyzed FBS, 0.0211 µM
[27] = RPMI 5 mM glucose + 10% dialyzed FBS, 0.0632 µM
[28] = RPMI 5 mM glucose + 10% dialyzed FBS, 0.19 µM
[29] = RPMI 5 mM glucose + 10% dialyzed FBS, 0.569 µM
[30] = RPMI 5 mM glucose + 10% dialyzed FBS, 1.71 µM
[31] = RPMI 5 mM glucose + 10% dialyzed FBS, 5.12 µM
[32] = RPMI 5 mM glucose + 10% dialyzed FBS, 15.4 µM
[33] = RPMI 5 mM glucose + 10% dialyzed FBS, 46.1 µM

Row | Compound | cell viability [1] [%] | cell viability [2] [%] | cell viability [3] [%] | cell viability [4] [%] | cell viability [5] [%] | cell viability [6] [%] | cell viability [7] [%] | cell viability [8] [%] | cell viability [9] [%] | cell viability [10] [%] | cell viability [11] [%] | cell viability [12] [%] | cell viability [13] [%] | cell viability [14] [%] | cell viability [15] [%] | cell viability [16] [%] | cell viability [17] [%] | cell viability [18] [%] | cell viability [19] [%] | cell viability [20] [%] | cell viability [21] [%] | cell viability [22] [%] | cell viability [23] [%] | cell viability [24] [%] | cell viability [25] [%] | cell viability [26] [%] | cell viability [27] [%] | cell viability [28] [%] | cell viability [29] [%] | cell viability [30] [%] | cell viability [31] [%] | cell viability [32] [%] | cell viability [33] [%]
1 | CC(C)=CCC/C(C)=C/CC/C(C)=C/CC/C(C)=C/CC/C(C)=C/CC/C(C)=C/CC/C(C)=C/CC/C(C)=C/CC/C(C)=C/CO | 107 | 109 | 108 | 112 | 116 | 109 | 109 | 108 | 104 | 93.4 | 106 | 105 | 103 | 115 | 103 | 108 | 98.7 | 105 | 97.1 | 91.3 | 87.1 | 96.1 | 98.3 | 100 | 92.7 | 99.6 | 103 | 102 | 106 | 97.3 | 87.9 | 95.9 | 90.3
2 | COc1cc(CCc2cc(NC(=O)c3ccc(N4C[C@@H](C)N[C@@H](C)C4)cc3)n[nH]2)cc(OC)c1 | 124 | 136 | 118 | 130 | 123 | 121 | 120 | 119 | 109 | 107 | 90 | – | – | – | – | – | – | – | – | – | – | – | – | – | – | – | – | – | – | – | – | – | –
3 | c1ccc2c(Cc3c[nH]c4ccccc34)c[nH]c2c1 | 94.9 | 101 | 93.7 | 95.8 | 97 | 95.4 | 95.1 | 91.1 | 89.7 | 87.4 | 29.9 | 100 | 93.3 | 95 | 92.2 | 82.2 | 90.4 | 86.7 | 91.2 | 88.7 | 89.3 | 32.8 | 86 | 94.3 | 92.2 | 84.8 | 89.6 | 92 | 96.8 | 94 | 86.3 | 85.2 | 38
4 | CN(C)c1ccc2nc3ccc(N(C)C)cc3[s+]c2c1 | 99.5 | 105 | 109 | 105 | 109 | 113 | 111 | 102 | 59.7 | 10.9 | 3.04 | 95.6 | 106 | 96.7 | 109 | 110 | 124 | 115 | 98.5 | 60.3 | 8 | 2.12 | 91.4 | 106 | 98.2 | 96.4 | 104 | 116 | 114 | 94.9 | 71.3 | 12.8 | 2.16
5 | Cc1ccc(C(=O)Nc2cccc(C(F)(F)F)c2)cc1-c1ccc2nc(NCCN3CCOCC3)ncc2c1 | 110 | 111 | 112 | 111 | 116 | 109 | 107 | 92.6 | 85 | 64.2 | 42.6 | 105 | 106 | 119 | 115 | 113 | 111 | 113 | 109 | 62.2 | 50.3 | 31.7 | 110 | 107 | 107 | 105 | 116 | 107 | 103 | 92.5 | 73.7 | 49.3 | 30.5
6 | CC(=O)OC[C@H]1O[C@@H]([S-])[C@H](OC(C)=O)[C@@H](OC(C)=O)[C@@H]1OC(C)=O.CCP(CC)CC.[Au+] | 89.2 | 88.1 | 91.2 | 99.2 | 94.1 | 102 | 98.6 | 94.5 | 71.7 | 6.24 | 6.03 | 86.8 | 89.2 | 90.6 | 93.1 | 82.2 | 90.6 | 93.4 | 89.3 | 14.8 | 5.1 | 4.94 | 87.8 | 84.1 | 81.6 | 92.7 | 79.7 | 87.6 | 91.9 | 78.2 | 6.72 | 5.18 | 5.56
7 | N#C/C(=C\c1ccc(O)c(O)c1)C(=O)NCc1ccccc1 | 101 | 96.5 | 103 | 106 | 104 | 106 | 103 | 100 | 102 | 68.5 | 47.4 | 105 | 106 | 101 | 101 | 103 | 94.3 | 103 | 97.6 | 87 | 68.2 | 36.7 | 95.2 | 96.1 | 99.5 | 97 | 98.7 | 88.3 | 93.1 | 94.7 | 80.3 | 67.7 | 41.5
8 | CC\12CCC(=O)\C=C1CCC3C2CCC4(C)C3CCC4(O)C#C (centres undefined) | 102 | 101 | 99.2 | 93.9 | 97.9 | 93.4 | 92 | 92.3 | 94.2 | 80.6 | 92.3 | 99.3 | 102 | 97.7 | 100 | 96.8 | 97.1 | 93.1 | 96.6 | 85.7 | 81.8 | 90.3 | 83.5 | 85.6 | 88.9 | 91.1 | 95.7 | 93.6 | 91.1 | 88.6 | 85.4 | 84.2 | 83
9 | CC(C)N(C[C@H]1O[C@@H](n2cnc3c(N)ncnc32)[C@H](O)[C@@H]1O)[C@H]1C[C@@H](CCc2nc3cc(C(C)(C)C)ccc3[nH]2)C1 | 87.7 | 93.6 | 101 | 98.2 | 99.2 | 103 | 103 | 12.9 | 11.5 | 11.6 | 2.23 | 90 | 96.5 | 103 | 99.2 | 95.4 | 105 | 102 | 103 | 108 | 92.7 | 1.91 | 96.2 | 100 | 103 | 104 | 96.5 | 97.6 | 113 | 99.2 | 31.4 | 31 | 1.74
10 | COc1ccc(C(CN(C)C)C2(O)CCCCC2)cc1 (centres undefined) | 111 | 106 | 108 | 107 | 115 | 114 | 95.3 | 96.5 | 106 | 98.2 | 108 | 116 | 115 | 134 | 151 | 120 | 91.1 | 81.8 | 97 | 106 | 85.7 | 109 | 98.4 | 111 | 109 | 103 | 120 | 106 | 105 | 106 | 101 | 91.5 | 97.1
11 | C[C@@H](NCCCc1cccc(C(F)(F)F)c1)c1cccc2ccccc12 | 120 | 123 | 117 | 125 | 109 | 118 | 114 | 118 | 113 | 100 | 115 | – | – | – | – | – | – | – | – | – | – | – | – | – | – | – | – | – | – | – | – | – | –
